Some test systems named below: COLO 205 colon; OVCAR-3 ovarian; EKVX NSCLC; HCT-15 colon; CCRF-CEM leukemia; SW-620 colon; SN12C renal; UO-31 renal; A498 renal; NCI-H522 lung.
Holding throughout (assay): inhibition of tumour cell growth, NCI panel, 48 h

Data on eleven molecules can be found in PubChem BioAssay (NCI).

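96-well plates; 48 h exposure; 5 concentrations. Endpoints by linear interpolation between flanking doses. Not reached: highest tested concentration assigned. The concentration for 50% growth inhibition is given as GI50. TGI: concentration producing complete growth inhibition.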 A value given as a limit tells only on which side of the number the result lay.

Consider `CC(=O)[CH-]C(=O)c1ccccc1.CC(=O)[CH-]C(=O)c1ccccc1.CC1(C)C2CCC1(C)C([O-])C2.CC1(C)C2CCC1(C)C([O-])C2.[Ti+4]`, for which the GI50 is 38.4 µM in the test with COLO 205 colon; 59.3 µM in the test on OVCAR-3 ovarian; 69.6 µM in the test with EKVX NSCLC; 30.9 µM in the test with HCT-15 colon; 25.1 µM with CCRF-CEM leukemia; 36.6 µM in the test on SW-620 colon. In addition, the GI50 in the test on SN12C renal was 27.9 µM; in the test on UO-31 renal it was 27.8 µM. Further, the TGI in the test on COLO 205 colon, in the test with OVCAR-3 ovarian, with EKVX NSCLC, in the test with HCT-15 colon, with CCRF-CEM leukemia and with SW-620 colon was above 100 µM throughout. For the same molecule, the TGI with SN12C renal was above 100 µM; in the test with UO-31 renal, 93.8 µM.

Regarding `O=c1cc2ccccc2nn1Cc1cccc(Cl)c1`, the TGI in the test with COLO 205 colon, in the test on OVCAR-3 ovarian, with EKVX NSCLC, in the test with HCT-15 colon, in the test with CCRF-CEM leukemia and with SW-620 colon was above 100 µM in each case. The TGI with SN12C renal, in the test on UO-31 renal and in the test on A498 renal was above 100 µM each time.

In the case of `CCn1c(CN2CCN(Cc3ccccc3)CC2)nc2cc(NC(=O)c3cccs3)ccc21`, the GI50 is 13.5 µM in the test with COLO 205 colon; 20.6 µM in the test with OVCAR-3 ovarian; 14.1 µM in the test with HCT-15 colon; 17.5 µM in the test on SW-620 colon; 23.5 µM with SN12C renal; 15.3 µM with UO-31 renal. Moreover, in the test with A498 renal, the GI50 was 6.05 µM. Besides, the TGI in the test with COLO 205 colon is 29.3 µM; in the test on OVCAR-3 ovarian it was above 100 µM; with HCT-15 colon it was 51.6 µM; in the test on SW-620 colon it was 43.4 µM; in the test on SN12C renal it was above 100 µM; with UO-31 renal, 42.6 µM. The molecule further returned a TGI with A498 renal of 29.6 µM.

On to `N#CC(C(=O)/C(=N/N)C(C#N)c1ccccc1)c1ccccc1` (centres undefined), for which the TGI in the test on OVCAR-3 ovarian, with EKVX NSCLC, with HCT-15 colon, in the test with CCRF-CEM leukemia, in the test with SW-620 colon and in the test on SN12C renal was above 100 µM in each case. For the same molecule, the TGI in the test with UO-31 renal and in the test with NCI-H522 lung was above 100 µM each time.

Regarding `Cc1ccccc1C(=O)c1ccccc1O`, the TGI in the test with COLO 205 colon, in the test on OVCAR-3 ovarian, in the test with EKVX NSCLC, in the test on HCT-15 colon, with CCRF-CEM leukemia and with SW-620 colon was above 100 µM each time. The TGI in the test with SN12C renal, with UO-31 renal and in the test on A498 renal was above 100 µM each time.

Take `O=C(Nc1cc(Cl)cc(Cl)c1)c1ccc(NC2=C(Cl)C(=O)N(Cc3ccc(Cl)cc3Cl)C2=O)cc1`: the GI50 in the test with COLO 205 colon was 12.1 µM; in the test with OVCAR-3 ovarian it was 26.8 µM; in the test on EKVX NSCLC, 21.2 µM; with HCT-15 colon, 7.06 µM; in the test on CCRF-CEM leukemia it was 0.22 µM; in the test on SW-620 colon, 1.38 µM. In addition, the GI50 with SN12C renal is 24.9 µM; in the test with UO-31 renal, 1.7 µM; in the test with NCI-H522 lung it was 15.7 µM. The TGI in the test on COLO 205 colon worked out at 35.4 µM; with OVCAR-3 ovarian it was 70.2 µM; with EKVX NSCLC, 71.4 µM; with HCT-15 colon it was 95.3 µM; with CCRF-CEM leukemia, 0.819 µM; with SW-620 colon, 13.1 µM. Besides, the TGI came out at 60.6 µM in the test on SN12C renal, 3.25 µM in the test on UO-31 renal and 34.3 µM in the test with NCI-H522 lung.

For `CC(=O)[CH-]C(=O)c1ccccc1.CC(=O)[CH-]C(=O)c1ccccc1.[Eu+3].[OH-].[OH3+]`, the GI50 in the test on COLO 205 colon, in the test on EKVX NSCLC, with HCT-15 colon, in the test with CCRF-CEM leukemia, in the test with SW-620 colon and with SN12C renal was above 100 µM in each case. The GI50 in the test with A498 renal was above 100 µM. Besides, the TGI with COLO 205 colon, with EKVX NSCLC, in the test on HCT-15 colon, with CCRF-CEM leukemia, in the test with SW-620 colon and in the test on SN12C renal was above 100 µM in each case. In the test with A498 renal, this molecule came in with a TGI above 100 µM.

As to `N#C/C(=C/c1ccc[nH]1)P(=O)(O)O`, the TGI in the test with COLO 205 colon, in the test with OVCAR-3 ovarian, in the test with EKVX NSCLC, in the test with HCT-15 colon, with CCRF-CEM leukemia and in the test with SW-620 colon was above 100 µM throughout. Also, the TGI with SN12C renal, in the test on UO-31 renal and in the test on NCI-H522 lung was above 100 µM throughout.

On to `N#Cc1nc2c(S(=O)(=O)c3ccccc3)c(N)n(Cc3cccnc3)c2nc1C#N`, for which the GI50 was above 100 µM in the test with COLO 205 colon; 3.48 µM in the test on OVCAR-3 ovarian; 81.9 µM with EKVX NSCLC; above 100 µM in the test with HCT-15 colon; 3.86 µM with CCRF-CEM leukemia; above 100 µM in the test on SW-620 colon. Moreover, the GI50 was 26.6 µM in the test on SN12C renal, 13.5 µM with UO-31 renal and 17.2 µM with A498 renal. Further, the TGI in the test on COLO 205 colon, with OVCAR-3 ovarian, with EKVX NSCLC, in the test on HCT-15 colon, in the test with CCRF-CEM leukemia and in the test with SW-620 colon was above 100 µM in each case. Besides, the TGI was above 100 µM in the test on SN12C renal, above 100 µM with UO-31 renal and 55.5 µM in the test with A498 renal.

As for `Oc1ccccc1C=NCc1ccco1`, the TGI with OVCAR-3 ovarian, in the test on EKVX NSCLC, with CCRF-CEM leukemia, in the test with SW-620 colon, in the test with SN12C renal and in the test with UO-31 renal was above 100 µM each time. This molecule showed a TGI in the test with A498 renal above 100 µM.

On to `Fc1ccc2c(c1)c(-c1nc(-c3c[nH]c4ncccc34)cs1)cn2CCCN1CCCCC1`, for which the GI50 in the test on COLO 205 colon was 1.73 µM; in the test with OVCAR-3 ovarian it was 1.63 µM; with SW-620 colon, 1.92 µM; in the test with SN12C renal, 1.74 µM; with UO-31 renal, 1.28 µM; with A498 renal, 2.57 µM. Further, the TGI in the test with COLO 205 colon is 3.48 µM; with OVCAR-3 ovarian, 3.12 µM; in the test with SW-620 colon, 3.75 µM; in the test with SN12C renal it was 3.31 µM; in the test with UO-31 renal it was 2.64 µM; in the test with A498 renal it was 6.48 µM.
